Measured values reported in publication PMC7707621, “Oxidized Juncuenin B Analogues with Increased Antiproliferative Activity on Human Adherent Cell Lines: Semisynthesis and Biological Evaluation” (Journal of Natural Products, 2020).
“Also recorded” adds a separate entry of the source.

Assays:
T47D cells = assay: MTT antiproliferative assay on T47D; type: cell-based, human; details: for inhibition at 10 µM / inhibition at 30 µM / IC50: Homo sapiens, T47D; for inhibition at 10 µM / inhibition at 30 µM: read-out: Growth inhibition (% ± SEM), T47d; for IC50: MTT, 0.1–30 μM, 72 h, mean ± SEM, read-out: calculated IC50 values, T47D
Procedure: (§1) The antiproliferative assays of the products were carried out by a standard MTT method on human breast (MCF-7, T47D), cervical (HeLa, SiHa, C33A), and ovarian (A2780) cancer cells, and NIH/3T3 mouse embryonic fibroblast cell lines. In the first step, the diastereomeric and racemic mixtures 1–11 and the starting compound, juncuenin B, were tested to obtain information about their antiproliferative activity.
(§2) The antiproliferative activity and tumor selectivity of the compounds were measured by standard MTT assays. Tumor cell lines MCF-7, T47D, HeLa, A2780, and noncancerous NIH/3T3 were provided by European Collection of Authenticated Cell Cultures (ECACC, Salisbury, UK); cell lines SiHa and C33A by LGC Standards GmbH (Wesel, Germany). All chemicals and materials used for the antiproliferative assays were purchased from Sigma Aldrich Ltd. (Budapest, Hungary).
(§3) Growth-inhibition properties of racemates and pure enantiomer compounds were determined by standard MTT assays on six human malignant gynecological cell lines (MCF-7, T47D, HeLa, SiHa, C33A, A2780). To investigate tumor selectivity, the MTT assay was repeated on mouse embryonic fibroblast cells (NIH/3T3) under the same conditions. All cell lines were maintained in minimal essential medium (MEM) supplemented with 10% fetal bovine serum, 1% nonessential amino acids, and 1% penicillin–streptomycin–amphotericin B mixture, and were stored in humidified air containing 5% CO2 at 37 °C. All cell types were seeded into 96–well plates at a density of 5000 with the exception of C33a, which was seeded at a density of 10 000 and treated by increasing concentrations (0.1–30 μM) of the compounds for 72 h under cell culturing conditions. After the incubation, 5 mg/mL MTT [3-(4,5-dimethylthiazol-2-yl)-2,5-diphenyltetrazolium bromide] solution was added to samples for 4 h and precipitated blue formazan crystals were dissolved in DMSO. Absorbance values of the samples were measured at 545 nm using a microplate reader (Stat Fax-2100, Awareness Technologies Inc., Palm City, FL, USA) and untreated cells were used as control. Normalized sigmoidal dose–response curves were fitted to the determined data and the IC50 values were calculated by GraphPad Prism 5.01 (GraphPad Software, San Diego, CA, USA). Cisplatin (Ebewe Pharma GmbH, Unterach, Austria) was used as a reference agent in the same concentration range.

SiHa cells = assay: MTT antiproliferative assay on SiHa; type: cell-based, human; details: for inhibition at 10 µM / inhibition at 30 µM / IC50: Homo sapiens, SiHa; for inhibition at 10 µM / inhibition at 30 µM: read-out: Growth inhibition (% ± SEM), SiHa; for IC50: MTT, 0.1–30 μM, 72 h, mean ± SEM, read-out: calculated IC50 values, SiHa
Procedure: as §1, §2, §3

MCF-7 cells = assay: MTT antiproliferative assay on MCF-7; type: cell-based, human; details: for inhibition at 10 µM / inhibition at 30 µM / IC50: Homo sapiens; for inhibition at 10 µM: MCF7, 10 μM; for inhibition at 10 µM / inhibition at 30 µM: read-out: Growth inhibition (% ± SEM), MCF-7; for inhibition at 30 µM: MCF7, 30 μM; for IC50: MCF7, MTT, 0.1–30 μM, 72 h, mean ± SEM, read-out: calculated IC50 values, MCF-7
Procedure: as §1, §2, §3

HeLa cells = assay: MTT antiproliferative assay on HeLa; type: cell-based, human; details: for inhibition at 10 µM / inhibition at 30 µM / IC50: Homo sapiens, HeLa; for inhibition at 10 µM / inhibition at 30 µM: read-out: Growth inhibition (% ± SEM), HeLa; for IC50: MTT, 0.1–30 μM, 72 h, mean ± SEM, read-out: calculated IC50 values, HeLa
Procedure: as §1, §2, §3

C33A cells = assay: MTT antiproliferative assay on C33A; type: cell-based, human; details: for inhibition at 10 µM / inhibition at 30 µM / IC50: Homo sapiens, C-33-A; for inhibition at 10 µM / inhibition at 30 µM: read-out: Growth inhibition (% ± SEM), C33a; for IC50: MTT, 0.1–30 μM, 72 h, mean ± SEM, read-out: calculated IC50 values, C33A
Procedure: as §1, §2, §3

[1] = system: MCF-7, T47D, HeLa, SiHa, C33A, A2780 cells; assay: MTT antiproliferative assay, panel of human gynecological cancer cell lines (result in words); type: cell-based
Procedure: as §1, §2, §3

A2780 cells = assay: MTT antiproliferative assay on A2780; type: cell-based, human; details: for inhibition at 10 µM / inhibition at 30 µM / IC50: Homo sapiens; for inhibition at 10 µM: A2780, 10 μM; for inhibition at 10 µM / inhibition at 30 µM: read-out: Growth inhibition (% ± SEM), A2780; for inhibition at 30 µM: A2780, 30 μM; for IC50: A2780, MTT, 0.1–30 μM, 72 h, mean ± SEM, read-out: calculated IC50 values, A2780
Procedure: as §1, §2, §3

[2] = system: NIH/3T3 mouse embryonic fibroblast cells; assay: MTT assay for tumor selectivity on NIH/3T3; type: cell-based; details: Mus musculus, NIH3T3; for inhibition at 10 µM / inhibition at 30 µM: read-out: Growth inhibition (% ± SEM), NIH; for IC50: MTT, 0.1–30 μM, 72 h, mean ± SEM, read-out: calculated IC50 values, NIH/3T3
Procedure: as §1, §2, §3

Row | IC50 (T47D cells) [µM] | IC50 (MCF-7 cells) [µM] | IC50 (HeLa cells) [µM] | IC50 (A2780 cells) [µM] | SMILES | inhibition at 10 µM (T47D cells; 10 μM) [%] | inhibition at 30 µM (T47D cells; 30 μM) [%] | inhibition at 10 µM (SiHa cells; 10 μM) [%] | inhibition at 30 µM (SiHa cells; 30 μM) [%] | inhibition at 10 µM (MCF-7 cells) [%] | inhibition at 30 µM (MCF-7 cells) [%] | inhibition at 10 µM (HeLa cells; 10 μM) [%] | inhibition at 30 µM (HeLa cells; 30 μM) [%] | inhibition at 10 µM (C33A cells; 10 μM) [%] | inhibition at 30 µM (C33A cells; 30 μM) [%] | antiproliferative activity (in words) [1] | inhibition at 10 µM (A2780 cells) [%] | inhibition at 30 µM (A2780 cells) [%] | IC50 (SiHa cells) [µM] | IC50 [2] [µM] | IC50 (C33A cells) [µM] | also measured
1 |  |  |  |  | C=CC1=C(C)C(=O)C=C2C3(OC)C=CC(=O)C(C)=C3CCC21OC (centres unmarked) [Compound 2a] | < 10 | 19.8 ± 0.61 | 15.4 ± 1.68 | 16.9 ± 2.31 | 40.3 ± 0.95 | 30.5 ± 1.82 | 32.3 ± 4.15 | 30 ± 0.74 | < 10 | 31.9 ± 3.75 | did not exert antiproliferative activity; also recorded: No significant activities | < 10 | 54.6 ± 3.67 |  |  |  | 
2 |  |  |  |  | C=CC1=C(C)C(=O)C=C2C3(OC)C=CC(=O)C(C)=C3CCC21OC (centres unmarked) [Compound 2b] |  |  |  |  |  |  |  |  |  |  | did not exert antiproliferative activity; also recorded: No significant activities |  |  |  |  |  | Growth inhibition (% ± SEM), T47d (T47D cells; 10 μM): 16.79±1.72%; Growth inhibition (% ± SEM), T47d (T47D cells; 30 μM): 25.66±2.53%; Growth inhibition (% ± SEM), SiHa (SiHa cells; 10 μM): 14.10±2.36%; Growth inhibition (% ± SEM), SiHa (SiHa cells; 30 μM): 15.32±0.68%; Growth inhibition (% ± SEM), MCF-7 (MCF-7 cells; 10 μM): 27.86±1.80%; Growth inhibition (% ± SEM), MCF-7 (MCF-7 cells; 30 μM): 46.79±1.23%; Growth inhibition (% ± SEM), HeLa (HeLa cells; 10 μM): 16.35±1.56%; Growth inhibition (% ± SEM), HeLa (HeLa cells; 30 μM): 38.33±1.22%; Growth inhibition (% ± SEM), C33a (C33A cells; 10 μM): < 10%; Growth inhibition (% ± SEM), C33a (C33A cells; 30 μM): 23.25±2.82%; Growth inhibition (% ± SEM), A2780 (A2780 cells; 10 μM): < 10%; Growth inhibition (% ± SEM), A2780 (A2780 cells; 30 μM): 38.92±3.78%
3 |  |  |  |  | C=Cc1c(C)c(O)c(OC)c2c3c(ccc12)C(C)(OC)C(=O)C=C3 (centres unmarked) [Compound 3] | < 10 | 15.5 ± 2.06 | < 10 | < 10 | 22.7 ± 0.57 | 21.4 ± 0.34 | < 10 | 15 ± 1.11 | < 10 | 14.2 ± 1.51 | did not exert antiproliferative activity; also recorded: No significant activities | < 10 | < 10 |  |  |  | 
4 | > 30 | > 30 | > 30 | > 30 | C=CC1=C(C)C(=O)C=C2c3ccc(O)c(C)c3CC[C@]21OC [Compound 4b] | 16.5 ± 1.68 | 28.1 ± 1.79 | < 10 | < 10 | 24.4 ± 1.43 | 42 ± 1.94 | 19 ± 2.11 | 37.2 ± 0.72 | < 10 | 35.4 ± 0.8 | no relevant influence on the cell proliferation | < 10 | 13.7 ± 2.81 | > 30 | > 30 | > 30 | inhibition at 10 µM [2]: < 10%; inhibition at 30 µM [2]: < 10%
5 |  |  |  |  | C=CC1=C(C)C(=O)C=C2C3(OCC)C=CC(=O)C(C)=C3CCC21OCC (centres unmarked) [Compound 5] | < 10 | 14.1 ± 2.78 | < 10 | < 10 | < 10 | < 10 | < 10 | 14.4 ± 1.51 | < 10 | 10.3 ± 1.51 | did not exert antiproliferative activity; also recorded: No significant activities | < 10 | < 10 |  |  |  | 
6 | > 30 | > 30 | > 30 | > 30 | C=CC1=C(C)C(=O)C=C2c3ccc(O)c(C)c3CC[C@]21OCC [Compound 7b, 8a-ethoxy-1,7-dimethyl-6-oxo-8-vinyl-9,10-dihydrophenanthrene-2-ols] | < 10 | 13.5 ± 2.41 | < 10 | < 10 | < 10 | < 10 | 15 ± 2.72 | 31.7 ± 2.37 | < 10 | 26 ± 3 | no activity; also recorded: no relevant influence on the cell proliferation | < 10 | 20.6 ± 2.43 | > 30 | > 30 | > 30 | inhibition at 10 µM [2]: < 10%; inhibition at 30 µM [2]: 10.5 ± 1%
7 |  |  |  |  | C=Cc1c(C)c(O)cc2c3c(ccc12)C(C)(OCC)C(=O)C=C3 (centres unmarked) [Compound 8] | < 10 | 14.1 ± 2.02 | < 10 | 16.7 ± 2.83 | 13 ± 0.63 | 23.9 ± 2.11 | < 10 | 22.2 ± 1.15 | < 10 | 21.3 ± 1.52 | did not exert antiproliferative activity; also recorded: No significant activities | < 10 | < 10 |  |  |  | 
8 |  |  |  |  | C=CC1=C2CCc3c(ccc(O)c3C)C2=CC(=O)C1(C)OCC (centres unmarked) [Compound 9] | < 10 | 13.2 ± 2.03 | < 10 | < 10 | 10.7 ± 2.42 | 17 ± 2.56 | 15.1 ± 1.9 | 18.4 ± 3.15 | < 10 | < 10 | did not exert antiproliferative activity; also recorded: No significant activities | < 10 | < 10 |  |  |  | 
9 |  |  |  |  | C=CC1=C(C)C(=O)C(OCCCC)(OCCCC)c2c1ccc1c2C=CC(=O)C1(C)OCCCC (centres unmarked) [Compound 10] | < 10 | 33 ± 1.62 | < 10 | 10.4 ± 2.8 | < 10 | 42.5 ± 2.23 | < 10 | 14.1 ± 1.97 | < 10 | 16 ± 1.43 | did not exert antiproliferative activity | < 10 | 10.1 ± 1.23 |  |  |  | 
10 | 30 ± 0.5 | 18.2 ± 0.2 | > 30 | 16.5 ± 2 | C=CC1=C(C)C(=O)C=C2c3ccc(O)c(C)c3CCC21OCCCC (centres unmarked) [Compound 11] | 11.6 ± 1.4 | 52.9 ± 0.59 | < 10 | < 10 | 27.7 ± 1.3 | 82.46 ± 0.33 | < 10 | 42.6 ± 1.18 | 20.1 ± 2.24 | 65.5 ± 1.26 | No significant activities | 28.3 ± 2.31 | 77.82 ± 0.69 | > 30 | > 30 | 19.9 ± 1.3 | 
